This note sets out measurements from US11739074B2, “Ras inhibitors” (Revolution Medicines, Inc., priority 2019, dated 2023).

Like-named read-outs stand apart in the source and are kept apart here.

In general, EC50 refers to the concentration needed to bring the measured effect to its halfway point. The term IC50 denotes the point on the concentration scale where inhibition reaches its midpoint.

What all share (assay type): cell-based
Test [1] deals with AsPC-1 (K-Ras G12D). Description: Potency assay: pERK in AsPC-1 cells. The conditions noted are these: Homo sapiens.
Test [2] has as its system NCI-H358 (K-Ras G12C). Nature of the test: CellTiter-Glo cell viability assay, H358. The following applies: Homo sapiens, NCI-H358, 120 h. An outline of the steps:
(§1)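 Direct compound addition to plated cells; 5-day exposure; ~30 min RT equilibration; CellTiter-Glo luminescence. Normalization: (sample/avg DMSO)*100; 4-parameter logistic curve fit.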
(In ATP-based viability assays light output follows the ATP content of the culture.)

In test [3] the test system is AsPC-1 (K-Ras G12D). Nature of the test: CellTiter-Glo cell viability assay, AsPC-1. The following applies: Homo sapiens, ASPC1, 120 h. In outline:
as §1

[4] abbreviates: ASPC1, AsPC-1 cells, K-Ras G12D, read-out: pERK EC50 (AsPC-1 KRAS G12D).
Where [5] appears, read: NCI-H358, K-Ras G12C, 5-day treatment, read-out: H358 Cell Viability IC50.
The mark [6] stands for this setting: AsPC-1, K-Ras G12D, 5-day treatment, read-out: AsPC-1 Cell Viability IC50.
[7] abbreviates: ASPC1, read-out: pERK EC50 (AsPC-1 KRAS G12D).
Setting [8] is: read-out: H358 Cell Viability IC50, NCI-H358, K-Ras G12C, 5-day treatment.
The mark [9] stands for this setting: read-out: AsPC-1 Cell Viability IC50, AsPC-1, K-Ras G12D, 5-day treatment.

Turning to `CCn1c(-c2cccnc2[C@H](C)OC)c2c3cc(ccc31)-c1cc(O)cc(c1)C[C@H](NC(=O)[C@H](C(C)C)N(C)C(=O)[C@@H]1CO[C@H](C)CN1C(=O)[C@H]1CN1)C(=O)N1CCC[C@H](N1)C(=O)OCC(C)(C)C2` [Compound 248], the 50% effective concentration (EC50) in test [1] (setting [4]) was less than 5000 nM. Moreover, the IC50 in test [2] (setting [5]) fell in the range of 10 to 100 nM; in test [3] (setting [6]) it was 100 to 1000 nM.
The corresponding values for `CCn1c(-c2cccnc2[C@H](C)OC)c2c3cc(ccc31)-c1cc(O)cc(c1)C[C@H](NC(=O)[C@H](C(C)C)N(C)C(=O)[C@@H]1CO[C@H](C)CN1C(=O)[C@@H]1CN1)C(=O)N1CCC[C@H](N1)C(=O)OCC(C)(C)C2` [Compound 249] are less than 5000 nM, 10 to 100 nM and 10 to 100 nM.
Take `CCn1c(-c2cccnc2[C@H](C)OC)c2c3cc(ccc31)-c1cc(O)cc(c1)C[C@H](NC(=O)[C@H](C(C)C)N(C)C(=O)CN(C)C(=O)[C@@]1(C)CN1)C(=O)N1CCC[C@H](N1)C(=O)OCC(C)(C)C2` [Compound 256]: in test [1] (setting [7]), the concentration for a half-maximal effect (EC50) was less than 5000 nM. The concentration for half-maximal inhibition (IC50) in test [2] (setting [8]) was 10 to 100 nM; in test [3] (setting [9]), 100 to 1000 nM.
Take `CCn1c(-c2cccnc2[C@H](C)OC)c2c3cc(ccc31)-c1cc(O)cc(c1)C[C@H](NC(=O)[C@H](C(C)C)N(C)C(=O)CN(C)C(=O)[C@]1(C)CN1)C(=O)N1CCC[C@H](N1)C(=O)OCC(C)(C)C2` [Compound 257]: in test [1] (setting [7]), the concentration giving a half-maximal response (EC50) was less than 5000 nM. The figures for the IC50 in test [2] (setting [8]) and in test [3] (setting [9]) were 10 to 100 nM and 100 to 1000 nM, respectively.
Turning to `CCn1c(-c2cccnc2[C@H](C)OC)c2c3cc(ccc31)-c1cc(O)cc(c1)C[C@H](NC(=O)[C@H](C(C)C)N(C)C(=O)CN(C)C(=O)[C@@H]1N[C@@H]1C(F)(F)F)C(=O)N1CCC[C@H](N1)C(=O)OCC(C)(C)C2` [Compound 258], in test [1] (setting [7]), the EC50 is less than 5000 nM. The IC50 in test [2] (setting [8]) lay in the range of 10 to 100 nM; in test [3] (setting [9]) it was 100 to 1000 nM.
`CCn1c(-c2cccnc2[C@H](C)OC)c2c3cc(ccc31)-c1cc(O)cc(c1)C[C@H](NC(=O)[C@H](C(C)C)N(C)C(=O)CN(C)C(=O)[C@H]1N[C@H]1C(F)(F)F)C(=O)N1CCC[C@H](N1)C(=O)OCC(C)(C)C2` [Compound 259]: the EC50 in test [1] (setting [7]) is less than 5000 nM. Further, the 50% inhibitory concentration (IC50) in test [2] (setting [8]) was 10 to 100 nM; in test [3] (setting [9]), 100 to 1000 nM.
Consider `CCn1c(-c2cccnc2[C@H](C)OC)c2c3cc(ccc31)-c1cc(O)cc(c1)C[C@H](NC(=O)[C@H](C(C)C)N(C)C(=O)CN(C)C(=O)[C@@H]1N[C@H]1C(F)(F)F)C(=O)N1CCC[C@H](N1)C(=O)OCC(C)(C)C2` [Compound 260], for which the concentration giving a half-maximal response (EC50) in test [1] (setting [7]) was less than 5000 nM. The values for the IC50 in test [2] (setting [8]) and in test [3] (setting [9]) were 10 to 100 nM and 100 to 1000 nM, respectively.
With `CCn1c(-c2cccnc2[C@H](C)OC)c2c3cc(ccc31)-c1cc(O)cc(c1)C[C@H](NC(=O)[C@H](C(C)C)N(C)C(=O)CN(C)C(=O)[C@H]1N[C@@H]1C(F)(F)F)C(=O)N1CCC[C@H](N1)C(=O)OCC(C)(C)C2` [Compound 261], the EC50 in test [1] (setting [7]) was less than 5000 nM. In addition, the IC50 is less than 10 nM in test [2] (setting [8]) and 100 to 1000 nM in test [3] (setting [9]).
On the same counts, the results for `CC[C@H]1N[C@H]1C(=O)N(C)CC(=O)N(C)[C@H](C(=O)N[C@H]1Cc2cc(O)cc(c2)-c2ccc3c(c2)c(c(-c2cccnc2[C@H](C)OC)n3CC)CC(C)(C)COC(=O)[C@@H]2CCCN(N2)C1=O)C(C)C` [Compound 262] are less than 5000 nM, 10 to 100 nM and 100 to 1000 nM.
As for `CC[C@@H]1N[C@@H]1C(=O)N(C)CC(=O)N(C)[C@H](C(=O)N[C@H]1Cc2cc(O)cc(c2)-c2ccc3c(c2)c(c(-c2cccnc2[C@H](C)OC)n3CC)CC(C)(C)COC(=O)[C@@H]2CCCN(N2)C1=O)C(C)C` [Compound 263], the EC50 in test [1] (setting [7]) is less than 5000 nM. The IC50 in test [2] (setting [8]) was 10 to 100 nM; in test [3] (setting [9]), 100 to 1000 nM.
The corresponding values for `CCn1c(-c2cccnc2[C@H](C)OC)c2c3cc(ccc31)-c1cc(O)cc(c1)C[C@H](NC(=O)[C@H](C(C)C)N(C)C(=O)CN(C)C(=O)[C@@H]1N[C@@H]1C(C)C)C(=O)N1CCC[C@H](N1)C(=O)OCC(C)(C)C2` [Compound 264] are less than 5000 nM, 10 to 100 nM and 100 to 1000 nM.
As for `CCn1c(-c2cccnc2[C@H](C)OC)c2c3cc(ccc31)-c1cc(O)cc(c1)C[C@H](NC(=O)[C@H](C(C)C)N(C)C(=O)CN(C)C(=O)[C@H]1N[C@H]1C(C)C)C(=O)N1CCC[C@H](N1)C(=O)OCC(C)(C)C2` [Compound 265], the 50% effective concentration (EC50) in test [1] (setting [7]) is less than 5000 nM. The IC50 in test [2] (setting [8]) is 10 to 100 nM; in test [3] (setting [9]), 100 to 1000 nM.
As for `CCn1c(-c2cccnc2[C@H](C)OC)c2c3cc(ccc31)-c1cc(O)cc(c1)C[C@H](NC(=O)[C@H](C(C)C)N(C)C(=O)CN(C)C(=O)[C@H]1CN1CCCOC(C)=O)C(=O)N1CCC[C@H](N1)C(=O)OCC(C)(C)C2` (stereo partly drawn) [Compound 266], the EC50 in test [1] (setting [7]) was less than 5000 nM. The 50% inhibitory concentration (IC50) in test [2] (setting [8]) is less than 10 nM; in test [3] (setting [9]), 100 to 1000 nM.
